ChEMBL document CHEMBL1201862, “PubChem BioAssay data set” (2004)
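96-well plates; 48 h exposure; 5 concentrations. Endpoints by linear interpolation between flanking doses. Not reached: highest tested concentration assigned. The concentration for 50% growth inhibition is given as GI50.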 Activity calls are given as the source filed them. No stated cut-off is given here; in the data, active = GI50 up to about 1.1 µM and inactive = higher.

Legend:
Assay in all cases: inhibition of tumour cell growth, NCI panel, 48 h
[1] = tested on: LOX IMVI
[2] = tested on: HOP-62
[3] = tested on: SK-MEL-28
[4] = tested on: MCF7
[5] = tested on: Malme-3M
[6] = tested on: MOLT-4
[7] = tested on: A498
[8] = tested on: A549
[9] = tested on: 786-0
[10] = tested on: HT-29
[11] = tested on: UACC-257
[12] = tested on: NCI-H522
[13] = tested on: NCI-H226
[14] = tested on: MDA-MB-231
[15] = tested on: RXF 393
[16] = tested on: OVCAR-4
[17] = tested on: NCI-H460
[18] = tested on: HCT-15
[19] = tested on: KM12
[20] = tested on: SK-MEL-2

| SMILES | GI50 [1] | GI50 [2] | GI50 [3] | GI50 [4] | GI50 [5] | GI50 [6] | GI50 [7] | GI50 [8] | GI50 [9] | GI50 [10] | GI50 [11] | GI50 [12] | GI50 [13] | GI50 [14] | GI50 [15] | GI50 [16] | GI50 [17] | GI50 [18] [µM] | GI50 [19] | GI50 [20] |
| --- | --- | --- | --- | --- | --- | --- | --- | --- | --- | --- | --- | --- | --- | --- | --- | --- | --- | --- | --- | --- |
| COc1cc2c(cc1OCc1ccccc1)NC(=O)[C@@H]1CCCN1C2=O | > 100 µM (inactive) | > 100 µM (inactive) | > 100 µM (inactive) | > 100 µM (inactive) | > 100 µM (inactive) | > 100 µM (inactive) | > 100 µM (inactive) | > 100 µM (inactive) | > 100 µM (inactive) | > 100 µM (inactive) | > 100 µM (inactive) | > 100 µM (inactive) | > 100 µM (inactive) | > 100 µM (inactive) | 82 µM (inactive) | > 100 µM (inactive) | > 100 µM (inactive) | > 100 | > 100 µM (inactive) | > 100 µM (inactive) |
| COc1cc(OC)c(OC)cc1/C=N/N=C(\N)NO | > 100 µM (inactive) | > 100 µM (inactive) | > 100 µM (inactive) | > 100 µM (inactive) | > 100 µM (inactive) | > 100 µM (inactive) | > 100 µM (inactive) | > 100 µM (inactive) | > 100 µM (inactive) | > 100 µM (inactive) | > 100 µM (inactive) | > 100 µM (inactive) | 61.4 µM (inactive) | > 100 µM (inactive) | > 100 µM (inactive) | > 100 µM (inactive) | > 100 µM (inactive) | > 100 | 18.5 µM (inactive) | 99.8 µM (inactive) |
| Oc1c2ccccc2c2c3c(cccc13)N=N2 [SP-600125] | 12.8 µM (inactive) | 69.3 µM (inactive) | 37.6 µM (inactive) | 49 µM (inactive) | 16.4 µM (inactive) | 20.4 µM (inactive) | 7.03 µM (inactive) | 14.9 µM (inactive) | 27.1 µM (inactive) | 25.9 µM (inactive) | 29.5 µM (inactive) | 12.2 µM (inactive) | 22.9 µM (inactive) | 65.3 µM (inactive) | 20.7 µM (inactive) | 31.9 µM (inactive) | 9.86 µM (inactive) | 8.04 | 2.62 µM (inactive) | 29 µM (inactive) |
